Key:
[1] = Final batch viscosity, Brookfield DV-I+ Viscometer; type: physicochemical; details: 1.0% in cleansing composition; acceptable if at least twice the viscosity of Example 1
Protocol: After this mixture had cooled to a temperature not greater than 40° C., the following components were added sequentially thereto: 0.10 parts Tetrasodium EDTA, 0.05 parts Quaternium-15, and 1.9 parts Glycerin. After this solution mixture had cooled to room temperature (approximately 25° C.), the pH of the resulting solution was then adjusted with a 20% citric acid solution until a final pH of 6.0 to 6.6 was obtained. The batch weight of the solution was then adjusted with water in order to achieve a total formulation of 100 parts. Table 2 lists the final batch viscosity of each Example as measured by a Brookfield DV-I+Viscometer using the indicated spindle and speed.
The viscosity of the examples was considered acceptable if it was at least twice the viscosity of Example 1.

[2] = Foam Generation (Foam Tray Test); type: physicochemical; details: 1.0% in cleansing composition; acceptable if at least twice the foam of Example 1
Protocol: 1. Foam Generation: 1 g of a cleansing composition sample was added to a tray containing 5 liters of tap water, then gently mixed until homogenous without generating any foam. A Model AJMP14 Jiffy Mixer mechanical mixer available from U.S. Best, Inc. with an attached propeller blade was then set at a level in the tray such that the propeller blade was halfway immersed in the mixture. The mixer was then activated at a speed of 2000 RPM for 30 seconds to generate foam. Foam data was collected via photography using a Polaroid MP4+ camera at 30 seconds after the mixing was ceased. The area of foam in the tray was calculated and reported as % area of foam in tray.
Foam performance evaluation was then accomplished for each of the cleansing compositions of Examples 1-8.
Foaming of the Examples was considered acceptable if it was at least twice the amount of foam of Example 1.

subject's eye = experiment: Ocular Irritancy Test (human ocular sting); type: in vivo; details: 1.0% in mild cleansing composition
Protocol: 2. Ocular Irritancy Test: Using a double-blinded, randomized, two (2) cell study test design, one (1) drop of a sample (e.g. a 10% dilution of a cleansing composition in water) at a temperature of about 38° C. was instilled into a subject's eye. A new sterile disposable eyedropper was used for each sample and disposed of after being used on only one individual's eye. All instillations were performed either by an investigator or by a trained technician.
Within 30 seconds, or as closely as possible following instillation, the subject was asked to grade the perceived stinging sensation to the eye utilizing the following criteria:
After 15 minutes and 60 minutes post-instillation, the subject was again asked to grade the perceived stinging sensation to the eye. The data was collected from a balanced, complete block experiment then statistically analyzed.
The samples of Examples 1-8 were tested for ocular irritancy. The results are reported in Table 4 in terms of the percentage of subjects who found the respective sample to be stinging to their eyes.
A sample was considered to have low ocular irritancy if less than 20% of the people tested found the sample to sting their eyes.

Substance	Effect on viscosity of a mild cleansing composition [1]	Effect on foam generation in mild cleansing compositions [2]	Mildness to the eye relative to Cocamide MIPA and Cocamide MEA (subject's eye)
Cocamide DEA [reference compound]	effective at increasing the viscosity	effective at increasing foam generation	significantly more mild to the eye
Cocamide MEA [reference compound]	effective at increasing the viscosity	effective at increasing foam generation	–
Cocamide MIPA [reference compound]	effective at increasing the viscosity	effective at increasing foam generation	–
PEG-3 Cocamide	effective at increasing the viscosity	effective at increasing foam generation	significantly more mild to the eye
PEG-6 Lauramide	effective at increasing the viscosity	effective at increasing foam generation	significantly more mild to the eye
polyethylene glycol (“PEG”)-6 Cocamide [PEG-6 Cocamide]	effective at increasing the viscosity	effective at increasing foam generation	significantly more mild to the eye
polypropylene glycol (“PPG”)-2 Hydroxyethyl Cocamide [PPG-2 Hydroxyethyl Cocamide]	effective at increasing the viscosity	effective at increasing foam generation	significantly more mild to the eye

Reference: patent US6514918B1, “Viscous, mild, and effective cleansing compositions” (Johnson & Johnson Consumer Companies, Inc., priority 2000, dated 2003)
